Experimental data published in patent publication US20080269106A1, “Methods and Compositions for Diagnosis and Treatment of Disorders Involving Macrophages” (priority 2005, published 2008).
d = 2'-deoxy (DNA); r = 2'-OH (RNA)

Key:
[1] = test system: RARα fusion proteins (AR-N′/RAR, ER-N′/RAR); experiment: RARα-dependent reporter with AR-N'/RAR and ER-N'/RAR fusion receptors, single cell microinjection; type: cell-based
BMP7 = experiment: Semi-quantitative RT-PCR of BMP7 in MCF-7 breast cancer cells; type: cell-based; conditions: MCF-7 cells
Method: Semi-quantitative RT-PCR was carried out as described (Zhu et al, 2004). Primers were: […]
(§1) Actin was used as the loading control. […] A BMP7 promoter-controlled LacZ reporter and an ERα expression plasmid were injected into cells. […] Wild-type ERα and Erα (E203A/G204A) were cotransfected with the reporter in 293 cells. […] Primer pair #1 flanks two putative ERE half-sites, and primer pair #2 (control) flanks a region ˜3 kb upstream of #1.
This is particularly relevant in light of the fact that a key aspect of reproductive regulation, blastocyst implantation, involves a local induction of BMP7 in response to inflammatory signals (Monroe et al., 2000; Paria et al., 2001).

androgen receptor (AR) [2] = molecular target: T1, androgen receptor (AR) (Homo sapiens, UniProt P10275); experiment: PSA promoter reporter, single cell nuclear microinjection in RWPE1 cells; type: cell-based; conditions: for effect on IL-1β-mediated activator function of bicalutamide: 14mer peptide microinjected, PSA promoter- or ARE-dependent reporters
T1 construct: endogenous in cells; host or cells: RWPE1 prostate cells
T1 sequence (P10275 1-920): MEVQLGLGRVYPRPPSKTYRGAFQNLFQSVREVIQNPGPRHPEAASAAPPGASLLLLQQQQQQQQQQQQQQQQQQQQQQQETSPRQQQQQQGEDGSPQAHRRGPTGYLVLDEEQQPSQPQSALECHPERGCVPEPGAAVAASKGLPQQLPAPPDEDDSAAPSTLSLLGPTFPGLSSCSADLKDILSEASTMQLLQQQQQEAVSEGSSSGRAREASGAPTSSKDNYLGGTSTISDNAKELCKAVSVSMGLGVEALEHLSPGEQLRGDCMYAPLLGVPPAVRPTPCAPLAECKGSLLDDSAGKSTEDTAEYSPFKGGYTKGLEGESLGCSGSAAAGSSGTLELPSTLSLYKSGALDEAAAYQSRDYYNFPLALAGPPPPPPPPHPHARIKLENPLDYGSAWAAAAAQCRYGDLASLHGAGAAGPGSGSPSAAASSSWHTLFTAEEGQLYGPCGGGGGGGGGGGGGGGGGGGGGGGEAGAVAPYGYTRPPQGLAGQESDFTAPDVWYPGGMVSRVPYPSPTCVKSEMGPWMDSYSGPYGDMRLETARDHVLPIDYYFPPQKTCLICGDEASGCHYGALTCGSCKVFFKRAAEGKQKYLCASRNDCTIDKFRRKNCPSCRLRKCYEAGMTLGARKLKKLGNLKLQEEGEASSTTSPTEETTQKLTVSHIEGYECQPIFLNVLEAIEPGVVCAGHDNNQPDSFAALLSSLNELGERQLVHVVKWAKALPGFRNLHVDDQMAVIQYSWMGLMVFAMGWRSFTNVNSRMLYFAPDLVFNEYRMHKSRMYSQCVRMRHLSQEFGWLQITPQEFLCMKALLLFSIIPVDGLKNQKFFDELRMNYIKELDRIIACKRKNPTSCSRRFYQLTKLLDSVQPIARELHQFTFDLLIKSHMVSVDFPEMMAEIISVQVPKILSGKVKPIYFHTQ
From the text: One representative of three independent experiments is shown.

ERα [3] = molecular target: T2, ERα (Homo sapiens, UniProt P03372); experiment: Luciferase reporter driven by human BMP7 proximal promoter in 293 cells; type: cell-based; parameters: expressed in transfected cells; host or cells: 293 cells; conditions: combination of E2 and IL-1β
T2 sequence (P03372 1-595): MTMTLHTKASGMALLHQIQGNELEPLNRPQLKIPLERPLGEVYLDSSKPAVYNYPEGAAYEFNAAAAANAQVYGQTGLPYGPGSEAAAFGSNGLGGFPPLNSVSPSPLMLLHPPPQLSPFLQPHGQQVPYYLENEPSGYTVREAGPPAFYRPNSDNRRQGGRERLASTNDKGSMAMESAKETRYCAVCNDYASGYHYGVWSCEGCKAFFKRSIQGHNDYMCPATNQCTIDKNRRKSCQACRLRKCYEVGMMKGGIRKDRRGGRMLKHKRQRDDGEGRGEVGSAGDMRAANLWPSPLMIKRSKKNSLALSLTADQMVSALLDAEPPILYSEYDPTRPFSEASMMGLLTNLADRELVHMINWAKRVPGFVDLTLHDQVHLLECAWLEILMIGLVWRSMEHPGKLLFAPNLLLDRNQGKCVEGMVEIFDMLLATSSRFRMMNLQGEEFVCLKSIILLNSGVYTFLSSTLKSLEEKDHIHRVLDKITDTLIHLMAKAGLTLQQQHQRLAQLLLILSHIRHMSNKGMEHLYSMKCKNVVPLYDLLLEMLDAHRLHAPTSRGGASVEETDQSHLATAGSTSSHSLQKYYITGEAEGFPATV
Method: as §1

ERα [4] = molecular target: T2, ERα; experiment: BMP7 promoter-controlled LacZ reporter, single cell nuclear microinjection in Rat-1 cells; type: cell-based; parameters: expressed in transfected cells; host or cells: Rat-1 cells; conditions: added to E2
Method: as §1

androgen receptor (AR) [5] = molecular target: T1, androgen receptor (AR); experiment: ARE-dependent lacZ reporter, single cell nuclear microinjection; type: cell-based; conditions: presence of bicalutamide
Method: Specific IgGs against AR, N-CoR, TAB2, HDAC3, HDAC2, HDAC1, Sin3, or MBD3 were used to immunoprecipitate protein-bound DNA fragments. […] The bound material was eluted and divided into several aliquots, and re-immunoprecipitated with antibodies as shown (2nd IP).
Cells were stained with antibodies directed against the N-CoR, and the fluorescence-conjugated secondary antibody was visualized using deconvoluting microscopy. Merged images with nuclear staining with DAPI are shown. […] 5 ng/ml of leptomycin B (LMB), a nuclear export inhibitor, was also used for 30 min followed by treatment with 10 ng/ml of IL-1β.

[6] = molecular target: estrogen receptor-α (ERα) (Homo sapiens, UniProt P03372); conditions: cells null for either MEKK1 or TAB2
From the text: Wild-type MEKK1, C478A MEKK1 (mutant of ubiquitin ligase activity), or D1369A MEKK1 (mutant of kinase activity) was used to rescue IL-1β-dependent activation of the pS2 promoter by 4-OHT in MEFs from MEKK−/− mice.

endogenous TAB2 = molecular target: T3, endogenous TAB2 (UniProt Q9NYJ8 1-693); experiment: 2-step ChIP co-occupancy
T3 construct: Endogenous protein, detected with anti-TAB2 IgG
T3 sequence (looked up): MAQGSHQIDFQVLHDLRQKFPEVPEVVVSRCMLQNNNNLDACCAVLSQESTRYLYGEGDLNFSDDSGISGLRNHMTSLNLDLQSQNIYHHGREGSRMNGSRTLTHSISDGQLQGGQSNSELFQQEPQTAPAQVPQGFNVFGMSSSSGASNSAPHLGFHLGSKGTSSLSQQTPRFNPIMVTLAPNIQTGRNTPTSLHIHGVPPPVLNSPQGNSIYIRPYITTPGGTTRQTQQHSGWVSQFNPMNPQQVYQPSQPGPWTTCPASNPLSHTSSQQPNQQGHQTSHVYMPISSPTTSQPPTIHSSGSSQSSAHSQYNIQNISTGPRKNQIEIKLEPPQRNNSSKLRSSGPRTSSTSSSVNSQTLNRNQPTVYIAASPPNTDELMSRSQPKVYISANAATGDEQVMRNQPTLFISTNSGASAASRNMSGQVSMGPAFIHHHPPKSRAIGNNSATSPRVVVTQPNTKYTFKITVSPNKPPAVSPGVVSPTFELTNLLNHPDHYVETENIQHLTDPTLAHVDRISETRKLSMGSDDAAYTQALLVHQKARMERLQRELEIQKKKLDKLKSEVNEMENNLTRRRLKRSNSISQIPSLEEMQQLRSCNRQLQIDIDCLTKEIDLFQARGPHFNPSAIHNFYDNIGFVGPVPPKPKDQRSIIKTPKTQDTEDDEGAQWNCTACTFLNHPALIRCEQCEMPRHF

## C[C@]12CC[C@@H]3c4ccc(O)cc4CC[C@H]3[C@@H]1CC[C@@H]2O [E2, 17-β-estradiol]
[1]
  activation of chimeric RARα: neither E2 nor DHT exerted activation effects
BMP7
  BMP7 transcript levels: decreased levels of BMP7 transcripts

## DIASEASTMQAAQQ [mutated AX7AA (SEQ ID NO:26) sequence]
Androgen receptor (AR) [2]
  effect on IL-1β-mediated activator function of bicalutamide: failed to inhibit induction

## C[C@]12CCC(=O)C[C@@H]1CC[C@@H]1[C@@H]2CC[C@]2(C)[C@@H](O)CC[C@@H]12 [DHT, Dihydrotestosterone]
[1]
  activation of chimeric RARα: neither E2 nor DHT exerted activation effects

## DILSEASTMQLLQQ [14mer synthetic peptide encompassing the AR LX7LL motif]
Androgen receptor (AR) [2]
  effect on IL-1β-mediated activator function of bicalutamide: specifically blocked
Androgen receptor (AR) [2]; peptide microinjected into RWPE1 cells pre-treated with TNFα, THP-1 macrophages, PSA promoter-dependent reporter
  effect on macrophage-induced agonistic switch of bicalutamide: blocked

## IL-1β: human IL-1β from Calbiochem, pro-inflammatory cytokine
ERα [3]
  hBMP7 proximal promoter reporter activity, combination with E2: restored the reporter activity to the baseline
ERα [4]
  expression of hBMP-7 promoter-controlled reporter on addition to E2: actively increased expression over the baseline
BMP7; added to E2
  effect on E2 inhibition of BMP7 transcripts: blocked this inhibition

## 5′-GCACCGAAGUAUUGUCCAAdTdT-3′ (sense GCACCGAAGUAUUGUCCAATT; antisense UUGGACAAUACUUCGGUGCTT; siRNA; sugars from the 5' end r19 d2, backbone not given here) [N-CoR siRNA]
Androgen receptor (AR) [5]
  effect on bicalutamide-dependent repression of ARE reporter: switch from repression to activation

## 4-OH tamoxifen [4-OHT]
[6]
  IL-1β-dependent conversion to activator of ERα: failed to occur

B1: wild-type RARα (receptor, UniProt P10276 1-462, looked up)
chain: MASNSSSCPTPGGGHLNGYPVPPYAFFFPPMLGGLSPPGALTTLQHQLPVSGYSTPSPATIETQSSSSEEIVPSPPSPPPLPRIYKPCFVCQDKSSGYHYGVSACEGCKGFFRRSIQKNMVYTCHRDKNCIINKVTRNRCQYCRLQKCFEVGMSKESVRNDRNKKKKEVPKPECSESYTLTPEVGELIEKVRKAHQETFPALCQLGKYTTNNSSEQRVSLDIDLWDKFSELSTKCIIKTVEFAKQLPGFTTLTIADQITLLKAACLDILILRICTRYTPEQDTMTFSDGLTLNRTQMHNAGFGPLTDLVFAFANQLLPLEMDDAETGLLSAICLICGDRQDLEQPDRVDMLQEPLLEALKVYVRKRRPSRPHMFPKMLMKITDLRSISAKGAERVITLKMEIPGSMPPLIQEMLENSEGLDTLSGQPGGGGRDGGGLAPPPGSCSPSLSPSSNRSSPATHSP
notes: also called retinoic acid receptor
Endogenous TAB2
  binding result: no binding
